# Results published in patent publication US20140051576A1, “ACTIVE COMPOUND COMBINATIONS COMPRISING A (THIO)CARBOXAMIDE DERIVATIVE AND AN INSECTICIDAL OR ACARICIDAL OR NEMATICIDAL ACTIVE COMPOUND” (priority 2011, published 2014).
# Where two headings read alike, the source gives them in different places.
# Experiments:
# Myzus persicae = Myzus persicae - Test (MYZUPE spray application); assay type: in vivo
# From the text: Myzus persicae—Test; (MYZUPE Spray Application)
# Chinese cabbage (Brassica pekinesis) leaf—disks infected with all instars of the green peach aphid (Myzus persicae), are sprayed with a preparation of the active ingredient at the desired concentration.
# 100% means that all aphids have been killed; 0% means that none of the aphids have been killed.
# Phaedon cochleariae = Phaedon cochleariae Larvae - Test (PHAECO spray application); assay type: in vivo
# From the text: Phaedon cochleariae—Test; (PHAECO Spray Application)
# Solvent: 78 parts by weight of acetone • 1.5 parts by weight of N,N-dimethylformamide Emulsifier: 0.5 parts by weight of alkylarylpolyglycolether
# Once dry, the leaf discs are infested with mustard beetle larvae (Phaedon cochleariae).
# Tetranychus urticae = Tetranychus urticae - Test; OP-resistant (TETRUR spray application); assay type: in vivo; details: for Mortality in % after 6 days obs.: single active ingredient
# From the text: Tetranychus urticae—Test; OP-Resistant (TETRUR Spray Application)
# French beans (Phaseolus vulgaris) which are heavily infested with all stages of the two spotted spidermite (Tetranychus urticae), are sprayed with a preparation of the active ingredient at the desired concentration.
# Spodoptera frugiperda = test: whole plant or invertebrate
# Experimental: Spodoptera frugiperda—Test (SPODFR Spray Application)
# Solvent: 78.0 parts by weight acetone • 1.5 parts by weight N,N-dimethylformamide Emulsifier: 0.5 parts by weight alkylarylpolyglycolether
# Maize (Zea mais) leaf sections are sprayed with a preparation of the active ingredient of the desired concentration. Once dry, the leaf sections are infested with larvae of the fall armyworm (Spodoptera frugiperda).
# After the specified period of time, the mortality in % is determined. 100% means that all caterpillars have been killed and 0% means that none of the caterpillars have been killed.
# [1] = Myzus persicae, 144 h, read-out: Mortality in % after 6 days obs.
# [2] = Tetranychus urticae, 48 h, read-out: Mortality in % after 2 days obs.
# [3] = Tetranychus urticae, 144 h, read-out: Mortality in % after 6 days obs.
# [4] = Myzus persicae, 24 h, read-out: Mortality in % after 1 day obs.
compound,measurement,setting,value
"N#CCNC(=O)c1cnccc1C(F)(F)F [B-9.2, Flonicamid]",Mortality in % after 1 day obs.,Myzus persicae; 20 g/ha,0%
same,Mortality in % after 6 days obs.,Myzus persicae; 20 g/ha,80%
same,Mortality in % after 6 days obs.,Phaedon cochleariae; 20 g/ha,0%
same,Mortality in % after 6 days obs.,Tetranychus urticae; 100 g/ha,0%
"CCOC(=O)OC1=C(c2cc(C)ccc2C)C(=O)N[C@]12CC[C@@H](OC)CC2 [B-23B.1, Spirotetramat]",mortality at 4 g/ha,Myzus persicae; [1],70%
same,mortality at 20 g/ha,Myzus persicae; [1],70%
same,mortality at 4 g/ha,Tetranychus urticae; [2],0%
same,mortality at 20 g/ha,Tetranychus urticae; [2],0%
same,mortality at 0.8 g/ha,Tetranychus urticae; [3],70%
same,mortality at 20 g/ha,"Spodoptera frugiperda; Spodoptera frugiperda, 144 h, read-out: Mortality in % after 6 days obs.",0%
"CNC(=O)c1cc(Cl)cc(C)c1NC(=O)c1cc(Br)nn1-c1ncccc1Cl [B-26.1, Chlorantraniliprole (Rynaxypyr)]",Mortality in % after 6 days obs.,Myzus persicae; 0.8 g/ha,0%
same,Mortality in % after 6 days obs.,Phaedon cochleariae; 0.8 g/ha,33%
same,Mortality in % after 2 days obs.,Phaedon cochleariae; 4 g/ha,50%
same,Mortality in % after 6 days obs.,Phaedon cochleariae; 4 g/ha,33%
"CC(c1ccc(C(F)(F)F)nc1)S(C)(=O)=NC#N (stereo not drawn) [B-27.27, Sulfoxaflor]",mortality at 0.8 g/ha,Myzus persicae; [4],0%
same,mortality at 4 g/ha,Myzus persicae; [4],0%
same,mortality at 4 g/ha,"Phaedon cochleariae; Phaedon cochleariae, 144 h, read-out: Mortality in % after 6 days obs.",33%
same,mortality at 4 g/ha,Tetranychus urticae; [3],0%
Abamectin [B-6.1],Mortality in % after 6 days obs.,Phaedon cochleariae; 0.16 g/ha,33%
same,Mortality in % after 2 days obs.,Tetranychus urticae; 0.8 g/ha,70%
Ethiprole [B-2B.1],Mortality in % after 6 days obs.,Myzus persicae; 100 g/ha,0%
Flubendiamide [B-26.3],Mortality in % after 6 days obs.,Phaedon cochleariae; 4 g/ha,0%
same,Mortality in % after 6 days obs.,Phaedon cochleariae; 20 g/ha,50%
same,Mortality in % after 6 days obs.,Tetranychus urticae; 100 g/ha,0%
same,Mortality in % after 2 days obs.,Spodoptera frugiperda; 100 g/ha,67%
Imidacloprid [B-4A.4],Mortality in % after 1 day obs.,Myzus persicae; 0.8 g/ha,0%
same,Mortality in % after 1 day obs.,Myzus persicae; 4 g/ha,70%
same,Mortality in % after 1 day obs.,Myzus persicae; 20 g/ha,80%
same,Mortality in % after 6 days obs.,Phaedon cochleariae; 100 g/ha,67%
same,Mortality in % after 6 days obs.,Tetranychus urticae; 4 g/ha,0%
Methiocarb [B-1A15],Mortality in % after 6 days obs.,Phaedon cochleariae; 20 g/ha,33%
same,Mortality in % after 6 days obs.,Tetranychus urticae; 100 g/ha,10%
same,Mortality in % after 2 days obs.,Tetranychus urticae; 500 g/ha,0%
same,Mortality in % after 2 days obs.,Spodoptera frugiperda; 500 g/ha,0%
same,Mortality in % after 6 days obs.,Spodoptera frugiperda; 500 g/ha,33%
Spinetoram [B-5.1],Mortality in % after 6 days obs.,Phaedon cochleariae; 0.16 g/ha,0%
same,Mortality in % after 6 days obs.,Phaedon cochleariae; 0.8 g/ha,0%
same,Mortality in % after 6 days obs.,Phaedon cochleariae; 4 g/ha,0%
same,Mortality in % after 2 days obs.,Tetranychus urticae; 0.8 g/ha,30%
same,Mortality in % after 6 days obs.,Tetranychus urticae; 0.8 g/ha,70%
same,Mortality in % after 2 days obs.,Spodoptera frugiperda; 0.032 g/ha,0%
same,Mortality in % after 2 days obs.,Spodoptera frugiperda; 0.8 g/ha,83%
Spinosad [B-5.2],Mortality in % after 6 days obs.,Phaedon cochleariae; 0.8 g/ha,0%
same,Mortality in % after 6 days obs.,Phaedon cochleariae; 4 g/ha,0%
same,Mortality in % after 2 days obs.,Phaedon cochleariae; 20 g/ha,50%
same,Mortality in % after 2 days obs.,Tetranychus urticae; 0.8 g/ha,0%
same,Mortality in % after 6 days obs.,Tetranychus urticae; 0.8 g/ha,0%
same,Mortality in % after 2 days obs.,Tetranychus urticae; 4 g/ha,0%
same,Mortality in % after 2 days obs.,Tetranychus urticae; 20 g/ha,0%
same,Mortality in % after 2 days obs.,Spodoptera frugiperda; 0.16 g/ha,0%
Thiacloprid [B-4A.6],Mortality in % after 6 days obs.,Myzus persicae; 0.16 g/ha,0%
same,Mortality in % after 1 day obs.,Myzus persicae; 0.8 g/ha,70%
same,Mortality in % after 6 days obs.,Myzus persicae; 4 g/ha,0%
same,Mortality in % after 6 days obs.,Phaedon cochleariae; 20 g/ha,83%
same,Mortality in % after 2 days obs.,Phaedon cochleariae; 100 g/ha,0%
same,Mortality in % after 6 days obs.,Tetranychus urticae; 4 g/ha,0%
same,Mortality in % after 2 days obs.,Tetranychus urticae; 100 g/ha,0%
